{
  "source": "patent US8536190B2",
  "about": "“Treating unwanted ocular conditions using an ascomycin macrolactam” (Allergan, Inc., priority 2007, dated 2013)",
  "assay_type_in_all_cases": "in vivo, human",
  "key": {"[1]": {"assay": "Preventative treatment of ocular conditions during weekly docetaxel treatments", "details": "person, medication containing 1.0% pimecrolimus during the entire course of docetaxel treatments", "source_text": "A person is diagnosed with metastatic breast cancer. Their physician decides that the best course of cancer therapy includes weekly docetaxel treatments. In order to reduce or prevent the occurrence of unwanted ocular conditions as a result of the docetaxel treatments, the physician also prescribes a medication containing 1.0% pimecrolimus to be administered during the entire course of docetaxel treatments."}, "[2]": {"assay": "Treatment of epiphora (canalicular stenosis) after docetaxel chemotherapy", "details": "person, docetaxel every three weeks, medication containing 0.03%, after one week of daily treatment", "source_text": "A physician diagnosis a person complaining of excessive tearing with epiphora. The physician determines that the cause of this excessive tearing was canalicular stenosis, and believes that this ocular condition was brought on by the person's prostate cancer therapy, which included docetaxel treatments every three weeks. The patient receives a medication containing 0.03% […]."}, "[3]": {"assay": "Treatment of epiphora (punctal stenosis) in a patient undergoing docetaxel treatments", "details": "person, docetaxel every three weeks, medication containing 0.1% tacrolimus, after one week of daily treatment", "source_text": "A person undergoing docetaxel treatments every three weeks as part of their breast cancer therapy developed epiphora during the seventh week. […] The patient receives a medication containing 0.1% tacrolimus."}},
  "data": [
    {"molecule": "CC[C@@H]1/C=C(\\C)C[C@H](C)C[C@H](OC)[C@H]2O[C@@](O)(C(=O)C(=O)N3CCCC[C@H]3C(=O)O[C@H](/C(C)=C/[C@@H]3CC[C@H](Cl)[C@H](OC)C3)[C@H](C)[C@@H](O)CC1=O)[C@H](C)C[C@@H]2OC", "note": "[pimecrolimus, Pimecrolimus]", "values": [
      {"measurement": "occurrence of epiphora or symptoms of an ocular condition", "setting": "[1]", "value": "does not exhibit epiphora or show any symptoms of an ocular condition"}
    ]},
    {"molecule": "Ascomycin [acromycin]", "values": [
      {"measurement": "excessive tearing (epiphora) after treatment", "setting": "[2]", "value": "the excessive tearing subsides"}
    ]},
    {"molecule": "Tacrolimus", "values": [
      {"measurement": "excessive tearing (epiphora) after treatment", "setting": "[3]", "value": "the excessive tearing subsides"}
    ]}
  ]
}
